The experiment concerns the target Leukotriene B4 receptor 1 (Homo sapiens, UniProt Q15722). The experiment can be described thus: IP-One assay (LTB4R), antagonist mode at up to 50 µM ( vs. 300 nM LTB4). In kind it is functional. Set-up: compound concentration < 50 uM.

Here are results for 1 compound from ChEMBL document CHEMBL5723582, “Data for DCP probe T-10430” (2024).

The term EC50 denotes the concentration needed to bring the measured effect to its halfway point. Read a high EC50 as a need for much substance.

Chain of Leukotriene B4 receptor 1 (Q15722 whole entry): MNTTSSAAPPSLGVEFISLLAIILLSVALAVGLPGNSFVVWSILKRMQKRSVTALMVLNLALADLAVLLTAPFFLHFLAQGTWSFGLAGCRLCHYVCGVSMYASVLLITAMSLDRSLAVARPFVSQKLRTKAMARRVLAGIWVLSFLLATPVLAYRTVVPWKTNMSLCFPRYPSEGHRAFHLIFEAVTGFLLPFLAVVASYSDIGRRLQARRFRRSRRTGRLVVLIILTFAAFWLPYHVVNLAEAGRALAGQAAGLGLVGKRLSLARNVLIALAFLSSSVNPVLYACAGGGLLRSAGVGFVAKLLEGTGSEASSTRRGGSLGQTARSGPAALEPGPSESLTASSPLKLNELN

In the case of `CCCCC(=O)N1CC2(CCN(c3ccccc3-c3nnn[nH]3)CC2)C1`, the EC50 was > 50 µM (not active).
